In PubChem BioAssay AID1963875 (Molecular Pharmacology Branch, DTP, NCI, 2024):
pIC50: −log10 of the molar value.

Tested on: KRAS-mutant PDC complex spheroid viability
Assay: Anticancer human tumor 186277-243-T-J2-PDC patient-derived colon adenocarcinoma cell line growth inhibition [KRAS2]
Conditions: for pIC50: curve of first compound; for viability, T/C: stronger effect = lower value
Text: Multicellular complex tumor spheroid response to RAS pathway inhibitors in combination with a targeted agents in patient-derived cell lines with oncogenic KRAS variants from multiple cancer types
A high-throughput screen of multi-cell type tumor spheroids was designed to identify active combinations of targeted small molecules and KRAS pathway inhibitors. Complex spheroids include a stromal component modeled by human endothelial cells (HUVEC) and fibroblasts modeled by human mesenchymal stem cells (MSCs). The concentration ranges selected for each drug and investigational agent were based upon clinically achievable concentrations if the clinical Cmax of the agent was known.
Compounds. The drugs and investigational agents: BI-3406 (NSC825286), BAY-293 (NSC824723), batoprotafib (TNO155; NSC825523), sotorasib (AMG 510; NSC818433), MRTX1257 (NSC819558), elimusertib (BAY 1895344; NSC800525), molibresib (GSK525762; NSC774829), temuterkib (LY3214996; NSC803410), venetoclax (NSC766270), alisertib (NSC759677), olaparib (NSC753686), talazoparib (NSC767125), erdafitinib (NSC781556), ipatasertib (NSC767898), cabozantinib (NSC761068), nintedanib (NSC756659), abemaciclib (NSC768073), docetaxel (NSC628503), trametinib (NSC758246), and sapanisertib (NSC764658) were obtained from the National Cancer Institute (NCI) Developmental Therapeutics Program Chemical Repository. The FDA-approved anticancer drug set is available from the Developmental Therapeutics Program. […] The stock solutions were prepared in dimethyl sulfoxide (DMSO, Sigma-Aldrich, St. Louis, MO, cat. D2650) at 800-fold the tested concentration and stored at -70 degrees C prior to their use. All drugs and investigational agents were tested over a range starting from a high concentration at or near the clinical Cmax and decreasing in half-log increments. If the clinical Cmax for an agent had not been determined, the highest concentration tested was 10 microM.
Cell Culture. All cells were maintained in an incubator at 37 degrees C and 5% CO2 with 95% humidity. The PDC lines were cultured according to standard operating procedures established by the NCI PDMR (https://pdmr.cancer.gov/sops/default.htm). Briefly, all PDCs were thawed and cultured in Matrigel-coated flasks prepared with a working solution of 1X Ham's F-12 nutrient mix, without supplementation (Invitrogen, Waltham, MA, cat. 11765054), 100 U/mL penicillin-streptomycin (Invitrogen, cat. 15140122), and 2.5% Matrigel (Corning Inc., Corning, NY, cat. 354248) for the first three passages. All PDCs were cultured in complete DMEM/F-12 media containing advanced DMEM/F-12 (Invitrogen, cat. 12634028), 4.9% defined fetal bovine serum, heat inactivated (HyClone Laboratories Inc., Logan, UT, cat. SH30070.03HI), 389 ng/mL hydrocortisone (Sigma-Aldrich, cat. H4001), 9.7 ng/mL human EGF recombinant protein (Invitrogen, cat. PHG0313), 23.4 microg/mL adenine (Sigma-Aldrich, cat. A2786), 97.3 U/mL penicillin-streptomycin (Invitrogen, cat. 15140122), 1.9 mM L-glutamine (Invitrogen, cat. 25030081), and 9.7 microM Y-27632 dihydrochloride (Tocris Bioscience, Bristol, United Kingdom, cat. 1254). The PDCs were cultured in complete DMEM/F12 media without 9.7 microM Y-27632 dihydrochloride for at least two passages prior to the screen. The established cell line HOP-62 was cultured in RPMI 1640 medium, HEPES (Invitrogen, cat. 22400105) with 10% defined fetal bovine serum (HyClone Laboratories Inc., cat. SH30070.03) and 2 mM L-glutamine (Invitrogen, cat. 25030081). The pooled donor HUVEC were cultured in endothelial cell growth medium 2 (PromoCell, Heidelberg, Germany, cat. C-22011) and the hMSC were cultured in mesenchymal stem cell growth medium 2 (PromoCell, cat. C-28009). For all experiments, HUVEC and hMSC were used at passages </=5, while the malignant cell lines were used at passages </=15. […]

[1] = second compound 0.1 µM, first compound 0.01 µM
[2] = second compound 0.1 µM, first compound 0.0316 µM
[3] = second compound 0.1 µM, first compound 0.1 µM
[4] = second compound 0.1 µM, first compound 0.316 µM
[5] = second compound 0.1 µM, first compound 1 µM
[6] = second compound 0.1 µM, first compound 3.16 µM
[7] = second compound 0.316 µM, first compound 0.01 µM
[8] = second compound 0.316 µM, first compound 0.0316 µM
[9] = second compound 0.316 µM, first compound 0.1 µM
[10] = second compound 0.316 µM, first compound 0.316 µM
[11] = second compound 0.316 µM, first compound 1 µM
[12] = second compound 0.316 µM, first compound 3.16 µM
[13] = second compound 1 µM, first compound 0.01 µM
[14] = second compound 1 µM, first compound 0.0316 µM
[15] = second compound 1 µM, first compound 0.1 µM
[16] = second compound 1 µM, first compound 0.316 µM
[17] = second compound 1 µM, first compound 1 µM
[18] = second compound 1 µM, first compound 3.16 µM
[19] = second compound 3.16 µM, first compound 0.01 µM
[20] = second compound 3.16 µM, first compound 0.0316 µM
[21] = second compound 3.16 µM, first compound 0.1 µM
[22] = second compound 3.16 µM, first compound 0.316 µM
[23] = second compound 3.16 µM, first compound 1 µM
[24] = second compound 3.16 µM, first compound 3.16 µM
[25] = second compound 10 µM, first compound 0.01 µM
[26] = second compound 10 µM, first compound 0.0316 µM
[27] = second compound 10 µM, first compound 0.1 µM
[28] = second compound 10 µM, first compound 0.316 µM
[29] = second compound 10 µM, first compound 1 µM
[30] = second compound 10 µM, first compound 3.16 µM
[31] = second compound 0.1 µM, first compound 10 µM
[32] = second compound 0.316 µM, first compound 10 µM
[33] = second compound 1 µM, first compound 10 µM
[34] = second compound 3.16 µM, first compound 10 µM
[35] = second compound 10 µM, first compound 10 µM
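For viability, T/C in this document: viability read after seven days of compound exposure; 100% = DMSO vehicle-treated spheroids so lower means less viable.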

| SMILES | pIC50 (second compound 0.1 µM) | pIC50 (second compound 0.316 µM) | pIC50 (second compound 1 µM) | pIC50 (second compound 3.16 µM) | pIC50 (second compound 10 µM) | viability, T/C [2] | viability, T/C [3] | viability, T/C [4] | viability, T/C [5] | viability, T/C [6] | viability, T/C [8] | viability, T/C [9] | viability, T/C [10] | viability, T/C [11] | viability, T/C [14] | viability, T/C [15] | viability, T/C [20] | viability, T/C [21] | viability, T/C [26] | viability, T/C [27] | other results |
| --- | --- | --- | --- | --- | --- | --- | --- | --- | --- | --- | --- | --- | --- | --- | --- | --- | --- | --- | --- | --- | --- |
| CC(=O)OC12COC1CC(O)C1(C)C(=O)C(O)C3=C(C)C(OC(=O)C(O)C(NC(=O)OC(C)(C)C)c4ccccc4)CC(O)(C(OC(=O)c4ccccc4)C21)C3(C)C (stereo not given) + C=CC(=O)N1CCN(c2nc(=O)n(-c3c(C)ccnc3C(C)C)c3nc(-c4c(O)cccc4F)c(F)cc23)C(C)C1 | > 8.00 | > 8.00 | > 8.00 | > 8.00 | > 8.00 | 4.61% | 3.18% | 3.25% | 3.42% | 3.34% | 4% | 3.67% | 3.33% | 3.62% | 4.03% | 3.81% | 4.69% | 3.98% | 5.4% | 5.36% | viability, T/C [1]: 6.27%; viability, T/C [7]: 6.24%; viability, T/C [12]: 4%; viability, T/C [13]: 6.82%; viability, T/C [16]: 3.93%; viability, T/C [17]: 4%; viability, T/C [18]: 4.32%; viability, T/C [19]: 6.24%; viability, T/C [22]: 4.34%; viability, T/C [23]: 4.7%; viability, T/C [24]: 4.34%; viability, T/C [25]: 6.5%; viability, T/C [28]: 5.19%; viability, T/C [29]: 5.08%; viability, T/C [30]: 4.88% |
| CN(C)C/C=C/C(=O)Nc1cc2c(Nc3ccc(F)c(Cl)c3)ncnc2cc1O[C@H]1CCOC1 + C=CC(=O)N1CCN(c2nc(=O)n(-c3c(C)ccnc3C(C)C)c3nc(-c4c(O)cccc4F)c(F)cc23)C(C)C1 | < 7.00 | < 7.00 | < 7.00 | < 7.00 | 7.30 | 122% | 109% | – | – | – | 107% | 112% | – | – | 113% | 105% | 97.7% | 74.4% | 55.2% | 40.6% | viability, T/C (second compound 0.1 µM, first compound 0.000316 µM): 105%; viability, T/C (second compound 0.1 µM, first compound 0.001 µM): 93.7%; viability, T/C (second compound 0.1 µM, first compound 0.00316 µM): 106%; viability, T/C [1]: 102%; viability, T/C (second compound 0.316 µM, first compound 0.000316 µM): 95.8%; viability, T/C (second compound 0.316 µM, first compound 0.001 µM): 97.7%; viability, T/C (second compound 0.316 µM, first compound 0.00316 µM): 99.5%; viability, T/C [7]: 98.4%; viability, T/C (second compound 1 µM, first compound 0.000316 µM): 91.2%; viability, T/C (second compound 1 µM, first compound 0.001 µM): 106%; viability, T/C (second compound 1 µM, first compound 0.00316 µM): 91.5%; viability, T/C [13]: 101%; viability, T/C (second compound 3.16 µM, first compound 0.000316 µM): 93.1%; viability, T/C (second compound 3.16 µM, first compound 0.001 µM): 103%; viability, T/C (second compound 3.16 µM, first compound 0.00316 µM): 100%; viability, T/C [19]: 98.1%; viability, T/C (second compound 10 µM, first compound 0.000316 µM): 79.9%; viability, T/C (second compound 10 µM, first compound 0.001 µM): 68.8%; viability, T/C (second compound 10 µM, first compound 0.00316 µM): 77.3%; viability, T/C [25]: 66.3% |
| COC(=O)c1ccc2c(C(=Nc3ccc(N(C)C(=O)CN4CCN(C)CC4)cc3)c3ccccc3)c(O)[nH]c2c1 + C=CC(=O)N1CCN(c2nc(=O)n(-c3c(C)ccnc3C(C)C)c3nc(-c4c(O)cccc4F)c(F)cc23)C(C)C1 | 5.67 | 6.05 | 5.80 | 6.34 | 6.69 | 95.6% | 93% | 94.4% | 104% | 25.4% | 87.5% | 96.1% | 97.7% | 44.6% | 96% | 92.9% | 96.1% | 96.8% | 56.1% | 63.4% | viability, T/C [31]: 12.7%; viability, T/C [12]: 19.7%; viability, T/C [32]: 6.92%; viability, T/C [16]: 102%; viability, T/C [17]: 73%; viability, T/C [18]: 13.7%; viability, T/C [33]: 3.67%; viability, T/C [22]: 53.5%; viability, T/C [23]: 33.5%; viability, T/C [24]: 6.72%; viability, T/C [34]: 3.16%; viability, T/C [28]: 43.5%; viability, T/C [29]: 12.5%; viability, T/C [30]: 1.11%; viability, T/C [35]: 0.14% |
| O=C(c1cc(Cc2n[nH]c(=O)c3ccccc23)ccc1F)N1CCN(C(=O)C2CC2)CC1 + C=CC(=O)N1CCN(c2nc(=O)n(-c3c(C)ccnc3C(C)C)c3nc(-c4c(O)cccc4F)c(F)cc23)C(C)C1 | 5.69 | 5.31 | 5.18 | 5.24 | 5.85 | 108% | 111% | 98.6% | 78% | 31.4% | 105% | 101% | 107% | 96.6% | 96.5% | 96.8% | 95.7% | 106% | 78% | 82.6% | viability, T/C [31]: 22.7%; viability, T/C [12]: 60.6%; viability, T/C [32]: 33.1%; viability, T/C [16]: 103%; viability, T/C [17]: 107%; viability, T/C [18]: 74.6%; viability, T/C [33]: 36.4%; viability, T/C [22]: 101%; viability, T/C [23]: 89.1%; viability, T/C [24]: 67%; viability, T/C [34]: 34.6%; viability, T/C [28]: 68.8%; viability, T/C [29]: 51.4%; viability, T/C [30]: 40.2%; viability, T/C [35]: 17.9% |
